Test results from patent US9326506B2, “Preparation method, agricultural composition and applications of natural brassinolide analogs” (CHENGDU NEWSUN CROPSCIENCE CO., LTD, priority 2012, dated 2016).

Tested on: rice
Experiment: Low temperature assay on rice seedlings
Assay type: in vivo
Description: According to a low temperature assay, we measured parameters including plant height, number of leaf, area of leaf, number of tiller, weight of root at low temperature to completely determine effects of the natural brassinolide analogues on the resistance to low temperature of a plant.
The natural brassinolide analogues, BR1, BR2, BR3, BR4, BR5 and BR6, used herein, were those prepared by the method of Example 1. Respectively the analogues were dissolved into 95% (V/V) ethanol solution, and then diluted with pure water to 1 mg/L, 0.1 mg/L, 0.01 mg/L, 0.001 mg/L and 0.0001 mg/L. In addition, pure water was used as a control.
After rice seeds were disinfected by using 5% sodium hypochlorite solution treatment, they were rinsed with distilled water until their pH>7, placed into a petri dish in a dark incubator, and cultured by using water at 30° C.±2° C. for 9 days. Then respectively the nine-day-old etiolated seedlings of rice were immersed in the above solutions containing different concentrations of the natural brassinolide analogues or pure water, and cultured at the temperature of 1° C., 2° C., 3° C., 4° C. and 5° C. for 24 hr. The parameters including plant height, area of leaf and weight of root after 3, 6, 9 and 12 days and number of leaf and number of tiller after 12 days were measured.

Compound: CC(C)(O)CC[C@@H](O)[C@](C)(O)[C@H]1CC[C@@]2(O)[C@@H]3CC(=O)[C@@H]4C[C@@H](O)[C@@H](O)C[C@]4(C)[C@H]3CC[C@]12C [BR6]
- Height (0.01 mg/l, 3 °C, 9 days): 7.4 cm
- Weight of root (0.01 mg/l, 3 °C, 9 days): 2.9 g
- Area of leaf (0.01 mg/l, 3 °C, 12 days): 13.2 cm^2
- Height (0.01 mg/l, 3 °C, 12 days): 7.6 cm
- Number of leaf (0.01 mg/l, 3 °C, 12 days): 3
- Number of tiller (0.01 mg/l, 3 °C, 12 days): 2
- Weight of root (0.01 mg/l, 3 °C, 12 days): 2.9 g
- Area of leaf (0.01 mg/l, 4 °C, 3 days): 10.8 cm^2
- Height (0.01 mg/l, 4 °C, 3 days): 7.1 cm
- Weight of root (0.01 mg/l, 4 °C, 3 days): 2.5 g
- Area of leaf (0.01 mg/l, 4 °C, 6 days): 12.4 cm^2
- Height (0.01 mg/l, 4 °C, 6 days): 7.3 cm
- Weight of root (0.01 mg/l, 4 °C, 6 days): 2.6 g
- Area of leaf (0.01 mg/l, 4 °C, 9 days): 13.7 cm^2
- Height (0.01 mg/l, 4 °C, 9 days): 7.6 cm
- Weight of root (0.01 mg/l, 4 °C, 9 days): 2.9 g
- Area of leaf (0.01 mg/l, 4 °C, 12 days): 13.7 cm^2
- Height (0.01 mg/l, 4 °C, 12 days): 7.8 cm
- Number of leaf (0.01 mg/l, 4 °C, 12 days): 3
- Number of tiller (0.01 mg/l, 4 °C, 12 days): 2
- Weight of root (0.01 mg/l, 4 °C, 12 days): 3.0 g
- Area of leaf (0.01 mg/l, 5 °C, 3 days): 10.9 cm^2
- Height (0.01 mg/l, 5 °C, 3 days): 7.7 cm
- Weight of root (0.01 mg/l, 5 °C, 3 days): 2.8 g
- Area of leaf (0.01 mg/l, 5 °C, 6 days): 13.9 cm^2
- Height (0.01 mg/l, 5 °C, 6 days): 7.8 cm
- Weight of root (0.01 mg/l, 5 °C, 6 days): 3.0 g
- Area of leaf (0.01 mg/l, 5 °C, 9 days): 17.1 cm^2
- Height (0.01 mg/l, 5 °C, 9 days): 8.1 cm
- Weight of root (0.01 mg/l, 5 °C, 9 days): 3.4 g
- Area of leaf (0.01 mg/l, 5 °C, 12 days): 18 cm^2
- Height (0.01 mg/l, 5 °C, 12 days): 8.5 cm
- Number of leaf (0.01 mg/l, 5 °C, 12 days): 4
- Number of tiller (0.01 mg/l, 5 °C, 12 days): 3
- Weight of root (0.01 mg/l, 5 °C, 12 days): 3.9 g
- Area of leaf (0.1 mg/l, 1 °C, 3 days): 10.1 cm^2
- Height (0.1 mg/l, 1 °C, 3 days): 7.0 cm
- Weight of root (0.1 mg/l, 1 °C, 3 days): 2.8 g
- Area of leaf (0.1 mg/l, 1 °C, 6 days): 12 cm^2
- Height (0.1 mg/l, 1 °C, 6 days): 7.3 cm
- Weight of root (0.1 mg/l, 1 °C, 6 days): 3.0 g
- Area of leaf (0.1 mg/l, 1 °C, 9 days): 12.9 cm^2
- Height (0.1 mg/l, 1 °C, 9 days): 7.3 cm
- Weight of root (0.1 mg/l, 1 °C, 9 days): 3.4 g
- Area of leaf (0.1 mg/l, 1 °C, 12 days): 13.4 cm^2
- Height (0.1 mg/l, 1 °C, 12 days): 7.5 cm
- Number of leaf (0.1 mg/l, 1 °C, 12 days): 3
- Number of tiller (0.1 mg/l, 1 °C, 12 days): 3
- Weight of root (0.1 mg/l, 1 °C, 12 days): 3.7 g
- Area of leaf (0.1 mg/l, 2 °C, 3 days): 10.4 cm^2
- Height (0.1 mg/l, 2 °C, 3 days): 7.1 cm
- Weight of root (0.1 mg/l, 2 °C, 3 days): 2.9 g
- Area of leaf (0.1 mg/l, 2 °C, 6 days): 11.8 cm^2
- Height (0.1 mg/l, 2 °C, 6 days): 7.2 cm
- Weight of root (0.1 mg/l, 2 °C, 6 days): 3.0 g
- Area of leaf (0.1 mg/l, 2 °C, 9 days): 12.8 cm^2
- Height (0.1 mg/l, 2 °C, 9 days): 7.3 cm
- Weight of root (0.1 mg/l, 2 °C, 9 days): 3.1 g
- Area of leaf (0.1 mg/l, 2 °C, 12 days): 13 cm^2
- Height (0.1 mg/l, 2 °C, 12 days): 7.4 cm
- Number of leaf (0.1 mg/l, 2 °C, 12 days): 3
- Number of tiller (0.1 mg/l, 2 °C, 12 days): 3
- Weight of root (0.1 mg/l, 2 °C, 12 days): 3.2 g
- Area of leaf (0.1 mg/l, 3 °C, 3 days): 10.5 cm^2
- Height (0.1 mg/l, 3 °C, 3 days): 7.2 cm
- Weight of root (0.1 mg/l, 3 °C, 3 days): 2.5 g
- Area of leaf (0.1 mg/l, 3 °C, 6 days): 12 cm^2
- Height (0.1 mg/l, 3 °C, 6 days): 7.3 cm
- Weight of root (0.1 mg/l, 3 °C, 6 days): 2.6 g
- Area of leaf (0.1 mg/l, 3 °C, 9 days): 12.8 cm^2
- Height (0.1 mg/l, 3 °C, 9 days): 7.4 cm
- Weight of root (0.1 mg/l, 3 °C, 9 days): 2.8 g
- Area of leaf (0.1 mg/l, 3 °C, 12 days): 13.2 cm^2
- Height (0.1 mg/l, 3 °C, 12 days): 7.5 cm
- Number of leaf (0.1 mg/l, 3 °C, 12 days): 3
- Number of tiller (0.1 mg/l, 3 °C, 12 days): 2
- Weight of root (0.1 mg/l, 3 °C, 12 days): 2.9 g
- Area of leaf (0.1 mg/l, 4 °C, 3 days): 10.8 cm^2
- Height (0.1 mg/l, 4 °C, 3 days): 7.1 cm
- Weight of root (0.1 mg/l, 4 °C, 3 days): 2.5 g
- Area of leaf (0.1 mg/l, 4 °C, 6 days): 12.5 cm^2
- Height (0.1 mg/l, 4 °C, 6 days): 7.4 cm
- Weight of root (0.1 mg/l, 4 °C, 6 days): 2.7 g
- Area of leaf (0.1 mg/l, 4 °C, 9 days): 13.5 cm^2
- Height (0.1 mg/l, 4 °C, 9 days): 7.5 cm
- Weight of root (0.1 mg/l, 4 °C, 9 days): 2.9 g
- Area of leaf (0.1 mg/l, 4 °C, 12 days): 13.8 cm^2
- Height (0.1 mg/l, 4 °C, 12 days): 7.7 cm
- Number of leaf (0.1 mg/l, 4 °C, 12 days): 3
- Number of tiller (0.1 mg/l, 4 °C, 12 days): 2
- Weight of root (0.1 mg/l, 4 °C, 12 days): 3.1 g
- Area of leaf (0.1 mg/l, 5 °C, 3 days): 11.1 cm^2
- Height (0.1 mg/l, 5 °C, 3 days): 7.7 cm
- Weight of root (0.1 mg/l, 5 °C, 3 days): 2.9 g
- Area of leaf (0.1 mg/l, 5 °C, 6 days): 13.9 cm^2
- Height (0.1 mg/l, 5 °C, 6 days): 7.8 cm
- Weight of root (0.1 mg/l, 5 °C, 6 days): 3.2 g
- Area of leaf (0.1 mg/l, 5 °C, 9 days): 17.8 cm^2
- Height (0.1 mg/l, 5 °C, 9 days): 8.4 cm
- Weight of root (0.1 mg/l, 5 °C, 9 days): 3.5 g
- Area of leaf (0.1 mg/l, 5 °C, 12 days): 18.9 cm^2
- Height (0.1 mg/l, 5 °C, 12 days): 8.6 cm
- Number of leaf (0.1 mg/l, 5 °C, 12 days): 3
- Number of tiller (0.1 mg/l, 5 °C, 12 days): 2
- Weight of root (0.1 mg/l, 5 °C, 12 days): 4 g
- Area of leaf (1 mg/l, 1 °C, 3 days): 10 cm^2
- Height (1 mg/l, 1 °C, 3 days): 7.1 cm
- Weight of root (1 mg/l, 1 °C, 3 days): 2.8 g
- Area of leaf (1 mg/l, 1 °C, 6 days): 11.2 cm^2
- Height (1 mg/l, 1 °C, 6 days): 7.2 cm
- Weight of root (1 mg/l, 1 °C, 6 days): 3.1 g
- Area of leaf (1 mg/l, 1 °C, 9 days): 12.4 cm^2
- Height (1 mg/l, 1 °C, 9 days): 7.3 cm
- Weight of root (1 mg/l, 1 °C, 9 days): 3.4 g
- Area of leaf (1 mg/l, 1 °C, 12 days): 12.8 cm^2
- Height (1 mg/l, 1 °C, 12 days): 7.3 cm
- Number of leaf (1 mg/l, 1 °C, 12 days): 3
- Number of tiller (1 mg/l, 1 °C, 12 days): 3
- Weight of root (1 mg/l, 1 °C, 12 days): 3.9 g
- Area of leaf (1 mg/l, 2 °C, 3 days): 10.2 cm^2
- Height (1 mg/l, 2 °C, 3 days): 7.1 cm
- Weight of root (1 mg/l, 2 °C, 3 days): 2.8 g
- Area of leaf (1 mg/l, 2 °C, 6 days): 11.7 cm^2
- Height (1 mg/l, 2 °C, 6 days): 7.2 cm
- Weight of root (1 mg/l, 2 °C, 6 days): 3.0 g
- Area of leaf (1 mg/l, 2 °C, 9 days): 12.6 cm^2
- Height (1 mg/l, 2 °C, 9 days): 7.3 cm
- Weight of root (1 mg/l, 2 °C, 9 days): 3.2 g
- Area of leaf (1 mg/l, 2 °C, 12 days): 13.1 cm^2
- Height (1 mg/l, 2 °C, 12 days): 7.6 cm
- Number of leaf (1 mg/l, 2 °C, 12 days): 3
- Number of tiller (1 mg/l, 2 °C, 12 days): 3
- Weight of root (1 mg/l, 2 °C, 12 days): 3.9 g
- Area of leaf (1 mg/l, 3 °C, 3 days): 10.4 cm^2
- Height (1 mg/l, 3 °C, 3 days): 7.1 cm
- Weight of root (1 mg/l, 3 °C, 3 days): 2.5 g
- Area of leaf (1 mg/l, 3 °C, 6 days): 12.2 cm^2
- Height (1 mg/l, 3 °C, 6 days): 7.3 cm
- Weight of root (1 mg/l, 3 °C, 6 days): 2.6 g
- Area of leaf (1 mg/l, 3 °C, 9 days): 12.6 cm^2
- Height (1 mg/l, 3 °C, 9 days): 7.5 cm
- Weight of root (1 mg/l, 3 °C, 9 days): 2.9 g
- Area of leaf (1 mg/l, 3 °C, 12 days): 13.2 cm^2
- Height (1 mg/l, 3 °C, 12 days): 7.6 cm
- Number of leaf (1 mg/l, 3 °C, 12 days): 3
- Number of tiller (1 mg/l, 3 °C, 12 days): 2
- Weight of root (1 mg/l, 3 °C, 12 days): 2.9 g
- Area of leaf (1 mg/l, 4 °C, 3 days): 10.9 cm^2
- Height (1 mg/l, 4 °C, 3 days): 7.1 cm
- Weight of root (1 mg/l, 4 °C, 3 days): 2.5 g
- Area of leaf (1 mg/l, 4 °C, 6 days): 12 cm^2
- Height (1 mg/l, 4 °C, 6 days): 7.5 cm
- Weight of root (1 mg/l, 4 °C, 6 days): 2.6 g
- Area of leaf (1 mg/l, 4 °C, 9 days): 13.4 cm^2
- Height (1 mg/l, 4 °C, 9 days): 7.5 cm
- Weight of root (1 mg/l, 4 °C, 9 days): 3.0 g
- Area of leaf (1 mg/l, 4 °C, 12 days): 14 cm^2
- Height (1 mg/l, 4 °C, 12 days): 7.7 cm
- Number of leaf (1 mg/l, 4 °C, 12 days): 3
- Number of tiller (1 mg/l, 4 °C, 12 days): 2
- Weight of root (1 mg/l, 4 °C, 12 days): 3.2 g
- Area of leaf (1 mg/l, 5 °C, 3 days): 11.1 cm^2
- Height (1 mg/l, 5 °C, 3 days): 7.7 cm
- Weight of root (1 mg/l, 5 °C, 3 days): 2.9 g
- Area of leaf (1 mg/l, 5 °C, 6 days): 13.6 cm^2
- Height (1 mg/l, 5 °C, 6 days): 8.0 cm
- Weight of root (1 mg/l, 5 °C, 6 days): 3.6 g
- Area of leaf (1 mg/l, 5 °C, 9 days): 18.9 cm^2
- Height (1 mg/l, 5 °C, 9 days): 8.8 cm
- Weight of root (1 mg/l, 5 °C, 9 days): 3.7 g
- Area of leaf (1 mg/l, 5 °C, 12 days): 20 cm^2
- Height (1 mg/l, 5 °C, 12 days): 8.9 cm
- Number of leaf (1 mg/l, 5 °C, 12 days): 3
- Number of tiller (1 mg/l, 5 °C, 12 days): 2
- Weight of root (1 mg/l, 5 °C, 12 days): 4.5 g
- Effects on resistance to low temperature compared among analogues (in vivo): more than those of BR2, BR3 and BR4
